How the values were obtained:
Format in all cases: cell-based, murine
[1] = test system: parental ES cell line (D3 ES cells); test: Self-renewal, differentiation and growth of ES cells in serum- and feeder-free culture with LIF and MAP kinase inhibitors
Method: (§1) FIG. 5A-5C. Effect of MAPK inhibitors on ES cell self-renewal. (A) Phase contrast image of parental ES cells cultured for 8 days (left), Bcl-2 ES cells cultured for 14 days (middle), and parental ES cells cultured with PD98059 for 14 days (right) in serum- and feeder-free conditions. (B) Growth curve of Bcl-2 ES cells (square) and parental ES cells cultured with 12.5 μM of PD98059 (circle) in serum- and feeder-free conditions. (C) Colony formation activity of parental (p) ES cells cultured without (Non) or with PD98059, and Bcl-2 ES cells at low cell density. Cultures were initiated with 200 cells per well (12 well-plate) and colonies were enumerated 7 days later.
(§2) Cell culture. D3 ES cells (Doetschman et al. (1985) J. Embryol. Exp. Morphol. 87:27-45) were maintained as previously described (Yamane et al. (1997) Blood 90:3516-3523), and clones expressing human Bcl-2 were established by co-transfecting parental D3 ES cells with the human Bcl2-IRES-EGFP transgene under control of the CAG promoter, and a puromycin resistance gene cassette. Bcl-2 ES cell clones were selected and expanded in the presence of puromycin. For serum-free cultures, ES cells are maintained in X-VIVO 15 (Cambrex) supplemented with 2 mM GlutaMax-1 (Gibco), 0.1 mM 2-mercaptoethanol, 1,000 U/mL ESGRO (Chemicon International), 100 U/mL penicillin (Gibco), and […] streptomycin (Gibco) on gelatin-coated dishes. Alternatively, IMDM/F12 (1:1) (Gibco) supplemented with 2 mM GlutaMax-1, 0.1 mM 2-mercaptoethanol, 0.1% polyvinyl alcohol (Sigma), 1× Insulin-Transferin-Selenium-X (Gibco), 1,000 U/mL ESGRO, 100 U/mL penicillin, and 100 mg streptomycin was used where indicated. Cells were dissociated with Cell Dissociation Buffer (Enzyme-Free, Hanks'-based, Gibco).
MAP kinase inhibitors. 1 μM SB203580 (Calbiochem) and 12.5 μM PD98059 (Calbiochem) were used as described (Qi et al. (2004) Proc. Natl. Acad. Sci USA 101, 6027-6032; Burdon et al. (1999) Dev. Biol. 210, 30-43).

[2] = test system: parental ES cells; test: Colony formation activity at low cell density in serum- and feeder-free conditions; conditions: 200 cells per well (12 well-plate), colonies enumerated 7 days later (FIG. 5C)
Method: as §1
as §2, with “Alternatively, IMDM/F12 (1:1) (Gibco) supplemented with 2 mM GlutaMax-1, 0.1 mM 2-mercaptoethanol, 0.1% polyvinyl alcohol (Sigma), 1× Insulin-Transferin-Selenium-X (Gibco), 1,000 U/mL ESGRO, 100 U/mL penicillin, and 100 mg streptomycin was used where indicated. Cells were dissociated with Cell Dissociation Buffer (Enzyme-Free, Hanks'-based, Gibco).” left out

[3] = test system: parental cell line (D3 ES cells); test: Viability of the parental cell line in serum- and feeder-free conditions with BMP; conditions: addition of BMP
Text: as §2

[4] = test system: Bcl-2, Bcl-xL, Mcl-1, Bax; test: Western blot analysis of Bcl-2 family members after BMP stimulation; conditions: parental ES cells, serum- and feeder-free, treated with BMP4 for 6 hours (FIG. 4B)
Method: FIG. 4A-4B. Western blot analysis for Smad proteins and Bcl-2 family members. (A) Cell lysates of parental cells cultured in conventional conditions with serum [p(serum)], a Bcl-2 clone in serum and feeder-free conditions untreated (Bcl-2), or treated with BMP4 for 90 minutes (Bcl-2+BMP4) were analyzed for the presence of phospho-Smad1/5/8 by western blotting (upper panel). The same membrane was stripped and reprobed with anti-actin antibody (lower panel). The band denoted by an asterisk is a product of non-specific staining. (B) Western blot analysis of Bcl-2 family members was performed for parental ES cells in conventional conditions with serum (serum), and for parental ES cells in serum- and feeder-free conditions without (Non) or treated with BMP4 for 6 hours (BMP4).
Western blots. Cells were lysed in 50 mM Tris-Cl (pH7.5)/150 mM NaCl/1% Triton-X/1% protease inhibitor cocktail set III (Calbiochem)/1 mM EDTA/1 mM Na3Vo4/1 mM NaF and proteins were separated by SDS-PAGE under denaturing conditions and transferred to Immobilon-P membrane (Miilipore). After blocking with 5% milk, the membrane was incubated with primary antibodies against phospho-Smad1/5/8 (Cell Signaling Technology), actin (Sigma), Bcl-2 (Dako), Bcl-xL (BD Bioscience), Mcl-1 (ABGENT), or Bax (BD Bioscience), washed, and then incubated with HRP-conjugated secondary antibodies. […]

COc1cccc(-c2cc(=O)c3ccccc3o2)c1N [PD98059]
growth speed of parental cell line with inhibitor compared with Bcl-2 ES cells ([1]; 12.5 μM PD98059, serum- and feeder-free (FIG. 5B)): somewhat faster | differentiated cells which appeared during culture ([1]; parental ES cell line, 12.5 μM PD98059, serum- and feeder-free, 14 days (FIG. 5A)): dramatically reduced | continuous growth in serum- and feeder-free conditions in the presence of LIF without Bcl-2 ([1]; parental ES cells, 12.5 μM PD98059, crisis upon continued passaging (FIG. 5B)): supported the continuous growth | colony formation at low cell density [2]: could never support the colony formation

C[S+]([O-])c1ccc(-c2nc(-c3ccncc3)c(-c3ccc(F)cc3)[nH]2)cc1 (stereo not shown) [SB 203580]
effect on self-renewal and differentiation of ES cells ([1]; 1 μM SB203580, serum- and feeder-free conditions): did not show any effect

B1: BMP: bone morphogenic protein; BMP4 used for stimulation of ES cells (protein, UniProt P12644 293-408, looked up)
Bone morphogenetic protein 4: SPKHHSQRARKKNKNCRRHSLYVDFSDVGWNDWIVAPPGYQAFYCHGDCPFPLADHLNSTNHAIVQTLVNSVNSSIPKACCVPTELSAISMLYLDEYDKVVLKNYQEMVVEGCGCR
viability of the parental cell line [3]: did not improve viability | expression of Bcl-2, Bcl-xL, Mcl-1 anti-apoptotic proteins [4]: neither Bcl-2, Bcl-xL, or Mcl-1 anti-apoptotic proteins are up-regulated

Source: US7641897B2, “Feeder layer and serum independent embryonic stem cells” (The Board of Trustees of the Leland Stanford Junior …, priority 2004, dated 2010)
